From patent US20070015733A1, “Aryl Phosphate Derivatives of d4T having Activity Against Resistant HIV Strains” (Parker Hughes Institute, priority 1998, published 2007)
Read-outs that look alike come from different tables or passages of the source.

Key:
[1] = test system: peripheral blood mononuclear cells; assay: Microculture tetrazolium assay (MTA) cytotoxicity in PBMNC; conditions: viability of PBMC
Protocol: Percent inhibition of viral replication was calculated by comparing the p24 and RT activity values from the test substance-treated infected cells with those from untreated infected cells. In parallel, the cytotoxicity of the compounds was examined using a microculture tetrazolium assay (MTA) of cell proliferation, as described.in the Zarling, Enrice, and Uckun articles Supra).
Cellular Assays of Anti-HIV Activity and Cytotoxicity. […] Percent viral inhibition was calculated by comparing the RT activity values from the test substance-treated infected cells with RT values from untreated infected cells (i.e., virus controls).
(§1) Antiviral susceptibility assays. Phenotypic drug susceptibility studies of HIV-1 isolates and strains were performed by measuring the production of the p24 gag protein in peripheral blood mononuclear cells (PBMC) from seronegative healthy volunteers in the presence of increasing concentrations of the anti-HIV agent using the quantitative Coulter HIV-1 p24 antigen ezyme immunoassay (EIA) and HIV-1 p24 Antigen Kinetic Standard (Beckman Coulter), as previously described (Uckun, 1998, Antimicrobial Agents and Chemotherapy 37(4): 835-38). Informed consent was obtained from the blood donors according to DHHS guidelines using consent forms approved by the Institutional Review Board. In brief, PBMC were cultured for 72 h in RPMI 1640 medium (Gibco) supplemented with 20% (vol/vol) heat-inactivated fetal bovine serum, 5% human interleukin-2 (Zeptometrix), 2 mM L-glutamine, 25 mM HEPES, 2 g/L NaHCO3, 100 U/ml penicillin/streptomycin (Gibco), 50 μg/ml gentamicin (Gibco), and 5 μg/ml phytohemagglutinin-P (PHA-P) (Sigma) for 24-72 hours prior to exposure to HIV at a multiplicity of infection of 0.001-0.1 during a 1-h adsorbtion period at 37±1° C. in a humidified 5-7% CO2 atmosphere. Subsequently, cells were cultured in 96-well microtiter plates (100 μl/well; 2×10^6 cells/ml, triplicate wells) in the presence of the anti-HIV agents at 6-7 different concentrations ranging from 0.0001 μM to 100 μM, and 25 μL aliquots of culture supernatants were removed from the wells on day 6 after infection for p24 EIA, as previously described (Uckun, 1998, Antimicrobial Agents and Chemotherapy, 37(4):835-38). Controls included uninfected and untreated cells (background control) and infected but untreated (virus control) cells. The p24 EIA utilizes a murine monoclonal antibody to HIV core protein used to coat microwell strips to which the antigen present in the test culture supernatant samples binds. Percent inhibition of viral replication was calculated by comparing the p24 values from the test substance-treated infected cells with p24 values from untreated infected cells (i.e., virus controls). The IC50 values were determined using the Statview statistics program (SAS Institute, Inc.). In parallel, the effects of various treatments on cell viability were also examined as previously described (Uckun, 1998, Antimicrobial Agents and Chemotherapy, 42:383-388). In brief, noninfected PBMC were treated with each compound for 5 days under identical experimental conditions. A microculture tetrazolium assay (MTA) was performed to quantitate cellular proliferation (Uckun, 1998, Antimicrobial Agents and Chemotherapy, 42:383-388).
In parallel, the cytotoxicity of the compounds was examined using a microculture tetrazolium assay (MTA) of cell proliferation, as described (in the Zarling, Enrice, and Uckun articles Supra).

[2] = test system: zidovudine-resistant primary clinical HIV-1 isolates; assay: p24 drug susceptibility assay, NRTI-/zidovudine-resistant primary clinical HIV-1 isolates in PBMC; type: cell-based; conditions: Human immunodeficiency virus 1, PBMC
Protocol: Viruses. […] The HIV-1 strains HTLVIIIB (wildtype RT, NRTI-sensitive, NNRTI-sensitive), A17 (Y181 C mutant, NNRTI-resistant), A17-variant (Y181C+K103N mutant, NNRTI-resistant), and RT-MDR (M41 L, V106N, T215Y; NRTI-resistant, NNRTI-resistant) were also obtained from the AIDS Research and Reference Reagent Program, NIAID.
as §1
Phenotypic drug susceptibility studies of HIV-1 isolates and strains were performed by measuring the production of the p24 gag protein in peripheral blood mononuclear cells (PBMC) from seronegative healthy volunteers in the presence of increasing concentrations of the anti-HIV agent using the quantitative Coulter HIV-1 p24 antigen enzyme immunoassay (EIA) and HIV-1 p24 Antigen Kinetic Standard (Beckman Coulter), as previously described. StatView was used in the calculation of the IC50 values from each set of triplicate wells using the linearized form of an exponential equation (lnY=lnb0+b1X; where Y=% inhibition, X=drug concentration). The inhibition constants were log10 transformed to homogenize the variances within each group. […] P-values below 0.05 were deemed significant (JMP Software, SAS).

[3] = test system: NRTI-resistant recombinant HIV-1 isolates; assay: p24 assay, multi-NRTI-resistant recombinant HIV-1 clones; type: cell-based
[4] = twice daily hard gelatin capsules 25-100 mg/kg; cumulative dose levels as high as […]; cited from earlier work

COC(=O)C(C)NP(=O)(OC[C@@H]1C=C[C@H](n2cc(C)c(=O)[nH]c2=O)O1)Oc1ccc(Br)cc1 (stereo partly drawn) [Compound 1c, d4T-5′-[p-bromo-phenylmethoxyalaninyl phosphate]]
CC50 [1]: > 100000 nM
IC50 ([2]; isolate 92BR019 (D67N, L214F, T215D, K219Q), PBMC): 2 nM
IC50 ([2]; isolate BR/92/019, PBMC, p24): 2 nM
IC50 ([2]; isolate C140 (M41L, M184V, T215Y), PBMC): 2.5 nM
IC50 ([2]; isolate C140, PBMC, p24): 2.5 nM
IC50 ([2]; isolate C467-4 (K20R, D67N, K70R, Y188L, T215F, K219Q), PBMC): 42 nM
IC50 ([2]; isolate C467-4, PBMC, p24): 42 nM
IC50 ([2]; isolate G190-6, PBMC, p24): 2.8 nM
IC50 ([2]; isolate G691-2 (mutations N.D.), PBMC): 5 nM
IC50 ([2]; isolate G704-2 (M41L, D67N, K70R, L210W, T215Y), PBMC): 3.2 nM
IC50 ([2]; isolate G704-2, PBMC, p24): 3.2 nM
IC50 ([2]; isolate G780-1 (M41L, D67N, K70R, T215F, K219Q), PBMC): 35 nM
IC50 ([2]; isolate G780-1, PBMC, p24): 35 nM
IC50 ([2]; isolate G890-1 (K20R, M41L, D67N, T69N, K70R, L210W, T215Y), PBMC): 6 nM
IC50 ([2]; isolate G890-1, PBMC, p24): 6 nM
IC50 ([2]; isolate G910-6 (M41L, D67N, K70R, T215Y, K219Q), PBMC): 2.8 nM
IC50 ([2]; isolate P798-1 (M41L, T215Y), PBMC): 7.5 nM
IC50 ([2]; isolate P798-1, PBMC, p24): 7.5 nM
IC50 ([2]; isolate Q252-2 (M41L, L210W, T215Y), PBMC): 1.9 nM
IC50 ([2]; isolate Q252-2, PBMC, p24): 1.9 nM
IC50 ([2]; isolate R416-10 (M41L, T215Y), PBMC): 0.2 nM
IC50 ([2]; isolate R416-10, PBMC, p24): 0.2 nM
IC50 ([2]; isolate S159-2 (M41L, K103N, T215Y), PBMC): 0.78 nM
IC50 ([2]; isolate S159-2, PBMC, p24): 0.8 nM
IC50 ([2]; isolate S762-4 (M41L, T215Y), PBMC): 8 nM
IC50 ([2]; isolate S762-4, PBMC, p24): 8 nM
IC50 ([2]; isolate T156-3 (M41L, E44D, D67N, T69D, L210W, T215Y), PBMC): 3.3 nM
IC50 ([2]; isolate T156-3, PBMC, p24): 3.3 nM
IC50 ([2]; isolate X165-8 (D67N, T69N, K70R, K103N, Y181C, T215F, K219E), PBMC): 13 nM
IC50 ([2]; isolate X165-8, PBMC, p24): 13 nM
IC50 ([2]; isolate X165-9 (K20R, D67N, K103N, T215Y), PBMC): 2 nM
IC50 ([2]; isolate X165-9, PBMC, p24): 2 nM
IC50 ([2]; isolate X267-1 (L74V), PBMC, p24): 0.2 nM
IC50 ([2]; isolate X267-1 (M41L, L74V, L210W, T215Y), PBMC): 0.15 nM
IC50 ([2]; isolate X267-2 (M41L, T215Y), PBMC): 0.18 nM
IC50 ([2]; isolate X267-2, PBMC, p24): 0.2 nM
IC50 ([2]; isolate X267-5 (M41L, F116S, T215Y), PBMC): 30 nM
IC50 ([2]; isolate X267-5, PBMC, p24): 30 nM
IC50 ([2]; isolate Y270-7 (M41W, Y188L, T215N), PBMC): 9 nM
IC50 ([2]; isolate Y270-7, PBMC, p24): 9 nM
IC50 ([2]; primary isolate C467-4 (Y188L), Table 14): 42 nM
IC50 ([2]; primary isolate S159-2 (K103N), Table 14): < 0.1 nM
IC50 ([2]; primary isolate X165-8 (K103N, Y181C), Table 14): 13 nM
IC50 ([2]; primary isolate X165-9 (K103N), Table 14): 2 nM
IC50 ([2]; primary isolate Y270-7 (Y188L), Table 14): 9 nM
IC50 ([2]; read-out: IC50 (nM), Mean ± SE, All (n = 25) NRTI-resistant HIV-1 isolates, p24): 13.4 ± 3.2 nM
IC50 ([2]; read-out: IC50 (nM), Mean ± SE, Group A (n = 19) NRTI-resistant clinical isolates): 8.9 ± 2.9 nM
IC50 ([2]; read-out: IC50 (nM), median, All (n = 25)): 6 nM
IC50 ([2]; read-out: IC50 (nM), median, Group A (n = 19)): 3.2 nM
IC50 ([2]; read-out: IC50 (nM), range, All (n = 25)): 0.2 to 57.9 nM
IC50 ([2]; read-out: IC50 (nM), range, Group A (n = 19)): 0.2 to 42 nM
IC50 ([2]; read-out: IC50, μM, Mean ± SE, mean over 20 zidovudine-resistant primary clinical isolates): 8.7 ± 2.7 nM
IC50 ([2]; read-out: IC50, μM, Mean ± SE, mean over the NNRTI-resistant primary isolates of Table 14): 11.2 ± 6.5 nM
IC50 ([2]; read-out: IC50 range, range over 20 zidovudine-resistant primary clinical isolates): 1 to 42 nM
IC50 ([2]; read-out: average IC50 value, mean over 20 zidovudine-resistant primary clinical isolates): 8.7 ± 2.8 nM
IC50 ([2]; read-out: average IC50 value, mean over primary clinical isolates with NNRTI binding pocket mutations): 11.2 ± 6.5 nM
IC50 ([2]; read-out: mean IC50 value, NRTI-resistant isolates with 5 thymidine analog mutations (Group 1 in Table 19)): 10.7 ± 5.1 nM
IC50 ([2]; read-out: mean IC50 value, isolates with M184V plus multiple thymidine analog mutations (Group 2 in Table 19)): 17.2 ± 13 nM
IC50 ([3]; Human immunodeficiency virus 1, read-out: IC50 (nM), Mean ± SE, Group B (n = 6) recombinant clones): 27.6 ± 7.9 nM
IC50 ([3]; Human immunodeficiency virus 1, read-out: IC50 (nM), median, Group B (n = 6)): 22.5 nM
IC50 ([3]; Human immunodeficiency virus 1, read-out: IC50 (nM), p24, recombinant clone 1617-1 (151 complex)): 19.9 nM
IC50 ([3]; Human immunodeficiency virus 1, read-out: IC50 (nM), p24, recombinant clone 4755-5): 6 nM
IC50 ([3]; Human immunodeficiency virus 1, read-out: IC50 (nM), p24, recombinant clone 7295-1): 43 nM
IC50 ([3]; Human immunodeficiency virus 1, read-out: IC50 (nM), p24, recombinant clone 7324-1): 13.7 nM
IC50 ([3]; Human immunodeficiency virus 1, read-out: IC50 (nM), p24, recombinant clone 52252-1 in Table 18, 56252-1 in Tables 19 and 20 (K65R, 151 complex)): 25 nM
IC50 ([3]; Human immunodeficiency virus 1, read-out: IC50 (nM), p24, recombinant clone printed 52534-1 in Table 18, 52534-2 in Tables 19 and 20 (69 insertion complex)): 57.9 nM
IC50 ([3]; Human immunodeficiency virus 1, read-out: IC50 (nM), range, Group B (n = 6)): 6 to 57.9 nM
IC50 ([3]; Human immunodeficiency virus 1, read-out: mean IC50 value, recombinant clones with 151 complex or 69 insertion complex (Group 3+Group 4)): 34.3 ± 11.9 nM
tolerability of four-week treatment course [4]: very well tolerated
